Assay results: patent US12692289B2, “Tumor-specific peptide antigens for ovarian cancer and uses thereof” (UNIVERSITE DE MONTREAL, priority 2019, dated 2026)
Peptide text beside a SMILES is read from it.

System: TCGA-OV cohort
Experiment: TCGA-OV cohort analysis: survival and immune cell scores by aeTSA RNA expression and HLA allotype
Set-up: species or system human
Settings: immune cell scores from RNA-Seq, ANOVA, p<0.05
Text: Clinical and genomic data from TCGA. Processed and normalized level 3 data with hg38 for HM27 methylation, DNA copy number variation, RNA-Seq gene expression as well as the clinical data were downloaded from the TCGA open-access database using the R package ‘TCGAbiolinks’ (31). Arm-level DNA copy number alterations were downloaded from Broad Institute TCGA Genome Data Analysis Center (doi:10.7908/C1P84B9Q).
Immune cell scores. Immune cell scores representing immune cell populations were estimated based on RNA-Seq data. For each tumor, scores were estimated as the average of log-transformed FPKM values of their marker genes as described by Danaher et al. (32).
Statistical analyses and data visualization. Analyses and figures were performed using the R v3.5.1 or Python v2.7.6. The ‘gplots’ package in R was used to generate heatmaps of TSA coding region expression in tumors. Correlation tests were done using R function ‘cor.test’ with the Spearman's method unless otherwise indicated. Tests involving comparisons of distributions were performed with ANOVA test, and pairwise comparisons between groups were performed by Wilcoxon rank sum test. Log-rank P values for survival analysis were calculated with the ‘survival’ package.

For `CSCC[C@H](NC(=O)[C@H](CCC(N)=O)NC(=O)[C@H](Cc1c[nH]cn1)NC(=O)[C@@H](NC(=O)[C@@H](N)CCCNC(=N)N)[C@@H](C)O)C(=O)N[C@@H](CC(N)=O)C(=O)N[C@H](C(=O)N[C@@H](Cc1ccccc1)C(=O)N[C@@H](CCC(N)=O)C(=O)N[C@@H](CCCNC(=N)N)C(=O)O)[C@@H](C)O` (H-RTHQMNTFQR-OH; N-terminus and C-terminus assumed), which “correlation of aeTSA expression and relevant HLA allotype with tumor infiltration by T cells and cytotoxic T cells” value is on record?
The value was “positive correlation”.
